Laboratory results from US10532066B2, “Surfactant lipids, compositions thereof, and uses thereof” (National Jewish Health, priority 2007, dated 2020).

Columns and labels:
Type in all cases: cell-based
[1] = system: Respiratory Syncytial Virus (RSV); experiment: RSV replication in BEAS2B cells (anti-RSV antibody staining); conditions: multiplicity 3, 72 h, POPG 200 ug/ml
Description: Monolayers of BEAS2B and NHBE cells were infected with RSV at a multiplicity of 3 for 72 h. Infections were performed on cells in either the absence or the presence of POPG (200 ug/ml). The cell monolayers were fixed and stained with goat anti-human RSV antibody conjugated with horseradish peroxidase. The presence of the antibody was detected with diaminobenzamidine. Controls consisted of cell layers not exposed to the virus or exposed to POPG in the absence of virus as indicated.

TLR8 = experiment: TLR agonist IL-8 production in primary human neutrophils, TLR8; conditions: polyU, 5-24 h
Description: (§1) In this experiment, multiple TLRs were stimulated with defined TLR agonists for 5-24 h as indicated, and the IL-8 production was measured. In each case the maximal stimulation by agonist is set at 100% and the antagonism by POPG is expressed as the relative % response. The Controls consist of no treatment, or treatment with POPG, in the absence of agonist as indicated. The agonists for the TLRs consist of Pam3Cys for TLR1/2, double stranded RNA (poly IC) for TLR3, Gram-negative lipopolysaccharide (LPS) for TLR4, and single stranded RNA (polyU) for TLR7/8.

influenza-A virus H3N2 = experiment: Influenza-A cytopathic effects and cell death in BEAS2B cells; conditions: 72 h, 200 ug/ml POPG
TLR3 [2] = molecular target: T1, TLR3 (Homo sapiens, UniProt O15455); experiment: TLR agonist IL-8 production in primary human neutrophils, TLR3; design: endogenous in cells; host or cells: primary human neutrophils; conditions: poly IC, 5-24 h
T1 sequence (O15455 24-904): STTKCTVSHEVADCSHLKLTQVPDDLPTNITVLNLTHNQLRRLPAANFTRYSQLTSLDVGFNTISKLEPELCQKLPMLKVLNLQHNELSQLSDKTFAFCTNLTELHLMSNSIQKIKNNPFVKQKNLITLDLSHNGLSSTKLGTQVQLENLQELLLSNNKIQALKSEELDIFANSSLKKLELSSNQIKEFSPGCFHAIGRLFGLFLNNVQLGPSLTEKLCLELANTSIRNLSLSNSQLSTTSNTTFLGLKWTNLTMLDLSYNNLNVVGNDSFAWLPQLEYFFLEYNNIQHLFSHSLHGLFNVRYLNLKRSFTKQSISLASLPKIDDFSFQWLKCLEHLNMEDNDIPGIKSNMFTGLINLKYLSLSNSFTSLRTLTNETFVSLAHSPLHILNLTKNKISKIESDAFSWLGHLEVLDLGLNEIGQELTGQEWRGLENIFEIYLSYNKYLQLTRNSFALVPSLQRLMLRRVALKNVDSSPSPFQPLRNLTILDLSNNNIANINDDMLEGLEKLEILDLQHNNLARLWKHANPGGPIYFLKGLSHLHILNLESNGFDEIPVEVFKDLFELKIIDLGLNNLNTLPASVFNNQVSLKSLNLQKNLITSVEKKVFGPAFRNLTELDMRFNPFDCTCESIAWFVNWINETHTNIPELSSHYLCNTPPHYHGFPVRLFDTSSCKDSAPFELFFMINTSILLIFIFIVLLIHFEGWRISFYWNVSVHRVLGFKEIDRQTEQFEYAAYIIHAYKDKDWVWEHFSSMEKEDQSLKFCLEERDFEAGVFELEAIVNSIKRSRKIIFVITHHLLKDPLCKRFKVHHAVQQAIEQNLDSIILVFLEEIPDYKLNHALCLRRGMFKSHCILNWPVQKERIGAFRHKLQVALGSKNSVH
Description: as §1

TLR3 [3] = molecular target: T2, TLR3 (Mus musculus, UniProt Q99MB1); experiment: TLR agonist TNFα production in RAW 264.7 cells, TLR3; conditions: poly IC, 24 h
T2 construct: endogenous in cells; host or cells: RAW 264.7
T2 sequence (Q99MB1 26-905): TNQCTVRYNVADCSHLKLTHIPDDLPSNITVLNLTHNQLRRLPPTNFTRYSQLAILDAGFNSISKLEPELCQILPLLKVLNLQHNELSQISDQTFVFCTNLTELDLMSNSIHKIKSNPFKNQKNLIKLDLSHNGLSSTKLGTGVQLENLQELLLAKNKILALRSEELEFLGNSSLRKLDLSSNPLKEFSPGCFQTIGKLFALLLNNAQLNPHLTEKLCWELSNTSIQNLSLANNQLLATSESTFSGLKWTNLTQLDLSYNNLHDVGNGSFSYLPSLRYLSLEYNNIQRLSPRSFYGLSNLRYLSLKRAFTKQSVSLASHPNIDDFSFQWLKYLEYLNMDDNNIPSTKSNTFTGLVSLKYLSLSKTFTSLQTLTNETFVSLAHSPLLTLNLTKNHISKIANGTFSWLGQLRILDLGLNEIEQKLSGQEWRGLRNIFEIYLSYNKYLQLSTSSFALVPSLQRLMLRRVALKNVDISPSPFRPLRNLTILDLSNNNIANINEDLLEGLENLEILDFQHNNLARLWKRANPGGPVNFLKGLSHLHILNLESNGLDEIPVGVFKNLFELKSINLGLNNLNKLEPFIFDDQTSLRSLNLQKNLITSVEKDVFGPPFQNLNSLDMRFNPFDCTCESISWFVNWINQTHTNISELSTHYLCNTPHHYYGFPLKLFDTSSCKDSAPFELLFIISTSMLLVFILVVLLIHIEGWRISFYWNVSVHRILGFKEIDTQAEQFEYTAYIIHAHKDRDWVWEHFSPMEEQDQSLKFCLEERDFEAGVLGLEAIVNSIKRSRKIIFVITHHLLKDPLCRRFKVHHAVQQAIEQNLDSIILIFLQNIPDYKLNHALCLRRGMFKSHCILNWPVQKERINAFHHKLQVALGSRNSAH
Description: In this experiment, multiple TLRs were stimulated with defined TLR agonists for 24 h and the TNFα production was measured. In each case, the maximal stimulation by agonist is set at 100% and the antagonism by POPG is expressed as the relative % response. The Controls consist of no treatment, or treatment with POPG in the absence of agonist as indicated. The agonists for the TLRs consist of Pam3Cys for TLR1/2, Mycoplasma pneumoniae membranes as an agonist for TLR2, mycoplasma derived MALP2 as an agonist for TLR 2/6, double stranded RNA (poly IC) for TLR3, Gram-negative lipopolysaccharide for TLR4, and CpG rich DNA as an agonist for TLR9. The TLR4 panel also contains the antagonist polymyxin B (PB) for comparison with POPG.

[4] = system: Respiratory Syncytial Virus (RSV); experiment: Cytopathic effects of RSV upon BEAS2B cells (photomicrography)
Description: Monolayers of BEAS2B cells were infected with RSV at a multiplicity of 3 for 72 h. Infections were performed on cells in either the absence or the presence of POPG (200 ug/ml). The cell monolayers were photographed at a magnification of 200×. Controls consisted of no viral challenge in either the presence or absence of POPG as indicated.
Monolayers of BEAS2B cells were infected with RSV at a multiplicity of 3 for 72 h. Infections were performed on cells in either the absence (b) or the presence (c,f) of POPG (200 ug/ml) and POPC (200 ug/ml) as indicated. Cells were photographed at a magnification of 200×. Controls (a,d,e) consisted of cell layers either not exposed to virus or exposed to POPG, and POPC in the absence of virus as indicated.
Monolayers of BEAS2B cells were infected with RSV at a multiplicity of 0.5-1, in either the presence or absence of 200 ug/ml POPG, or 200 ug/ml POPC, as indicated.
Monolayers of BEAS2B cells were either uninfected (CONL) or challenged with RSV at a multiplicity of 0.5/cell (RSV). Where indicated in the FIG. 44, RSV challenged cells were also treated with POPC (200 ug/ml) or POPG (200 ug/ml) liposomes; or POPG nanodiscs (nanoPOPG) at concentrations ranging from 100-300 ug/ml. Selected panels and fields are also shown at 400× magnification in FIG. 45.
Where indicated in FIG. 46, RSV challenged cells were also treated with nanodisc forms of dipalmitoyl-phosphatidylcholine (nanoDPPC), palmitoyl-oleoyl-phosphatidylcholine (nanoPOPC), or dioleoyl-phosphatidylcholine (nanoDOPC), dipalmitoyl-phosphatidylglycerol (nanoDPPG), dimyristoyl-phosphatidylglycerol (nanoDMPG), or dioleoyl-phosphatidylglycerol (nanoDOPG). At 72 h after infection, the cultures were examined by photomicrography at a magnification of 200×.

CCCCCCCC/C=C\CCCCCCCC(=O)O[C@H](COC(=O)CCCCCCCCCCCCCCC)COP(=O)(O)OCC(O)CO (stereo partly shown) [POPG, palmitoyl-oleoyl-phosphatidylglycerol]
viral replication [1]: prevents viral replication
activity of TLR8 (IL-8 production) (TLR8): inhibits
cell death induced by influenza A infection (influenza-A virus H3N2): prevents cell death
activity of TLR3 (IL-8 production) (TLR3 [2]): inhibits
activity of TLR3 (TNFα production) (TLR3 [3]): inhibits
killing of cells by RSV ([4]; multiplicity 0.5-1, 72 h, 200 ug/ml): prevents the killing
cytopathic effects of RSV ([4]; multiplicity 3, 72 h, lipid 200 ug/ml): prevents the cytopathic effects
